Test results reported in US20180243273A1, “Composition for Intravesical Administration for Treating Bladder Pain” (priority 2017, published 2018).

Test: Preliminary stability study of API intravesical solution
Assay type: physicochemical
Experimental: Two dose strengths were specified: 40 μg/mL and 150 μg/mL API. These concentrations were defined in order to stay below 80% of the saturated solubility values obtained during previous experiments. To enable dissolution of the API, 0.5 wt.-% and 2 wt.-% vitamin E TPGS were used for 40 μg/mL and 150 μg/mL API, respectively (24 h stirring). The compositions were treated with nitrogen and stored at 5° C., 25° C. and 40° C.

[1] = vitamin E TPGS 0.5%, API 40 μg/mL, Asc. 1%, 6° C., 1 m
[2] = vitamin E TPGS 0.5%, API 40 μg/mL, Asc. 1%, 6° C., 2 w
[3] = vitamin E TPGS 0.5%, API 40 μg/mL, Asc. 1%, t = 0
[4] = vitamin E TPGS 0.5%, API 40 μg/mL, no Asc., treated with nitrogen, 6° C., 1 m
[5] = vitamin E TPGS 0.5%, API 40 μg/mL, no Asc., treated with nitrogen, 6° C., 2 w
[6] = vitamin E TPGS 0.5%, API 40 μg/mL, no Asc., treated with nitrogen, 6° C., 3 m
[7] = vitamin E TPGS 0.5%, API 40 μg/mL, no Asc., treated with nitrogen, 25° C., 1 m
[8] = vitamin E TPGS 0.5%, API 40 μg/mL, no Asc., treated with nitrogen, 25° C., 2 w
[9] = vitamin E TPGS 0.5%, API 40 μg/mL, no Asc., treated with nitrogen, 25° C., 3 m
[10] = vitamin E TPGS 0.5%, API 40 μg/mL, no Asc., treated with nitrogen, 40° C., 1 m
[11] = vitamin E TPGS 0.5%, API 40 μg/mL, no Asc., treated with nitrogen, 40° C., 2 w
[12] = vitamin E TPGS 0.5%, API 40 μg/mL, no Asc., treated with nitrogen, 40° C., 3 m
[13] = vitamin E TPGS 0.5%, API 40 μg/mL, no Asc., treated with nitrogen, t = 0
[14] = vitamin E TPGS 2%, API 150 μg/mL, Asc. 1%, 6° C., 1 m
[15] = vitamin E TPGS 2%, API 150 μg/mL, Asc. 1%, 6° C., 2 w
[16] = vitamin E TPGS 2%, API 150 μg/mL, Asc. 1%, t = 0
[17] = vitamin E TPGS 2%, API 150 μg/mL, no Asc., treated with nitrogen, 6° C., 1 m
[18] = vitamin E TPGS 2%, API 150 μg/mL, no Asc., treated with nitrogen, 6° C., 2 w
[19] = vitamin E TPGS 2%, API 150 μg/mL, no Asc., treated with nitrogen, 6° C., 3 m
[20] = vitamin E TPGS 2%, API 150 μg/mL, no Asc., treated with nitrogen, 25° C., 1 m
[21] = vitamin E TPGS 2%, API 150 μg/mL, no Asc., treated with nitrogen, 25° C., 2 w
[22] = vitamin E TPGS 2%, API 150 μg/mL, no Asc., treated with nitrogen, 25° C., 3 m

Question: For `CN(C)[C@]1(c2cccc(F)c2)CC[C@]2(CC1)c1[nH]c3ccccc3c1CCN2C(=O)/C=C/c1ccccc1` [API, cis-(E)-4-(3-fluorophenyl)-2′,3′,4′,9′-tetrahydro-N,N-dimethyl-2′-(1-oxo-3-phenyl-2-propenyl)-spiro[cyclohexane-1,1′[1H]-pyrido[3,4-b]indol]-4-amine], which “assay values over storage” value (all investigated compositions, 3 months, stored at 6° C. or 25° C.) is on record?
Answer: remained stable

Question: What about the assay over storage (stored at 40° C.) of the same compound?
Answer: decreased considerably

Question: What about the Assay [1] of the same compound?
Answer: 70.25 % L.S.

Question: And the Impurities [1]?
Answer: 1.00 % (a/a)

Question: What about the Assay [2] of the same compound?
Answer: 70.56 % L.S.

Question: And the Impurities [2]?
Answer: 0.57 % (a/a)

Question: And the Assay [3]?
Answer: 70.39 % L.S.

Question: What about the Impurities [3] of the same compound?
Answer: 0.57 % (a/a)

Question: What about the Assay [4] of the same compound?
Answer: 54.62 % L.S.

Question: What about the Impurities [4] of the same compound?
Answer: 0.58 % (a/a)

Question: And the Assay [5]?
Answer: 54.81 % L.S.

Question: And the Impurities [5]?
Answer: 0.08 % (a/a)

Question: And the Assay [6]?
Answer: 55.05 % L.S.

Question: And the Impurities [6]?
Answer: 0.69 % (a/a)

Question: And the Assay [7]?
Answer: 54.98 % L.S.

Question: What about the Impurities [7] of the same compound?
Answer: 0.86 % (a/a)

Question: What about the Assay [8] of the same compound?
Answer: 54.71 % L.S.

Question: And the Impurities [8]?
Answer: 0.97 % (a/a)

Question: What about the Assay [9] of the same compound?
Answer: 54.50 % L.S.

Question: What about the Impurities [9] of the same compound?
Answer: 1.42 % (a/a)

Question: And the Assay [10]?
Answer: 54.06 % L.S.

Question: And the Impurities [10]?
Answer: 1.78 % (a/a)

Question: What about the Assay [11] of the same compound?
Answer: 54.61 % L.S.

Question: And the Impurities [11]?
Answer: 1.04 % (a/a)

Question: And the Assay [12]?
Answer: 52.07 % L.S.

Question: What about the Impurities [12] of the same compound?
Answer: 4.94 % (a/a)

Question: And the Assay [13]?
Answer: 54.58 % L.S.

Question: What about the Impurities [13] of the same compound?
Answer: 0.55 % (a/a)

Question: And the Assay [14]?
Answer: 67.68 % L.S.

Question: What about the Impurities [14] of the same compound?
Answer: 1.16 % (a/a)

Question: What about the Assay [15] of the same compound?
Answer: 68.11 % L.S.

Question: And the Impurities [15]?
Answer: 0.68 % (a/a)

Question: And the Assay [16]?
Answer: 68.21 % L.S.

Question: What about the Impurities [16] of the same compound?
Answer: 0.68 % (a/a)

Question: What about the Assay [17] of the same compound?
Answer: 61.93 % L.S.

Question: And the Impurities [17]?
Answer: 0.72 % (a/a)

Question: And the Assay [18]?
Answer: 62.29 % L.S.

Question: What about the Impurities [18] of the same compound?
Answer: 0.49 % (a/a)

Question: And the Assay [19]?
Answer: 62.05 % L.S.

Question: And the Impurities [19]?
Answer: 0.72 % (a/a)

Question: And the Assay [20]?
Answer: 62.07 % L.S.

Question: What about the Impurities [20] of the same compound?
Answer: 1.00 % (a/a)

Question: And the Assay [21]?
Answer: 61.97 % L.S.

Question: What about the Impurities [21] of the same compound?
Answer: 0.68 % (a/a)

Question: What about the Assay [22] of the same compound?
Answer: 61.96 % L.S.

Question: And the Impurities [22]?
Answer: 1.37 % (a/a)
